Data on 24 molecules can be found in patent US11952387B2, “Bicyclic heteroaromatic ring derivative” (priority 2018, dated 2024).

In this test the test system is HRV14. Put plainly: Inhibitory activity against human rhinovirus infection and replication (quantitative real-time PCR). Format: cell-based. As to conditions: Human rhinovirus sp., MRC5; 100 nmol/L test compound; MRC-5 cells infected with HRV14 at MOI=0.2; 48 hours; viral load normalized to 18s rRNA; read-out: Percent Inhibition. In short, it runs like this: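 Near-confluent MRC-5 cells were pretreated 30 min with compound at 100 or 1000 nmol/L, then infected with HRV14 (MOI 0.2) in compound-containing medium (2% FBS, 30 mmol/L MgCl2) and cultured 48 h at 35 °C. HRV14 RNA by qRT-PCR, normalized to 18S rRNA; percent inhibition versus untreated infected cells.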
(In general: Real-time PCR tracks product formation cycle by cycle.)

By inhibition is commonly meant the share of the control response that was lost under treatment.

Take `COc1ccc(-c2c(C)nc3sc(C(C)(C)O)nn23)cc1S(=O)(=O)Cc1cccnc1` [Example 2-94]: the inhibition at 0.1 µM fell in the range of 50 to 80%.

Consider `COc1ccc(-c2c(C)nc3sc(C(C)(C)O)cn23)cc1S(=O)(=O)Nc1ccccc1O` [Example 2-81], for which the inhibition at 0.1 µM is above 80%.

As for `COc1ccc(-c2c(C)nc3sc(C(C)(C)O)nn23)cc1S(=O)(=O)CC1(O)CCC(F)(F)CC1` [Example 2-64], the inhibition at 0.1 µM was above 80%.

`CCOC(=O)C(C)(C)c1nn2c(-c3ccc(OC)c(S(=O)(=O)N[C@H]4CC[C@@H](O)CC4)c3)c(C)nc2s1` [Example 1-22]: the inhibition at 0.1 µM is above 80%.

`COc1ccc(-c2c(C)nc3sc(C(C)(C)O)nn23)cc1S(=O)(=O)NC[C@H]1C[C@@H](O)C1` [Example 21-3]: the inhibition at 0.1 µM lay within 50 to 80%.

With `Cc1nc2sc(C(C)(C)O)nn2c1-c1ccc(C(F)(F)F)c(S(=O)(=O)CC2(C)COC2)c1` [Example 2-26], the inhibition at 0.1 µM was above 80%.

Take `COc1ccc(-c2c(C)nc3sc(C(C)(C)O)nn23)cc1S(=O)(=O)C(C)(C)C#N` [Example 7-1]: the inhibition at 0.1 µM is above 80%.

On to `COc1ccc(-c2c(C)nc3sc(C(C)(C)O)nn23)cc1S(=O)(=O)Cc1ccc(F)cc1` [Example 2-92], for which the inhibition at 0.1 µM was in the range of 50 to 80%.

On to `COc1ccc(-c2c(C)nc3sc(C(C)(C)O)nn23)cc1S(=O)(=O)[C@H]1C[C@@H]1C(C)(C)O` [Example 2-78], for which the inhibition at 0.1 µM was at most 50%.

Regarding `Cc1nc2sc(C3CC3)nn2c1-c1ccc(C(F)(F)F)c(S(=O)(=O)N[C@H]2CC[C@H](O)CC2)c1` [Example 1-30], the inhibition at 0.1 µM is above 80%.

`COc1ccc(-c2c(C)nc3sc(C(C)(C)O)nn23)cc1S(=O)(=O)CC1(O)CCC1` [Example 2-63]: the inhibition at 0.1 µM is at most 50%.

On to `COc1ccc(-c2c(C)nc3sc(C(C)(C)O)nn23)cc1S(=O)(=O)NC1(C(C)(C)O)CC1` [Example 23], for which the inhibition at 0.1 µM is above 80%.

Consider `COc1ccc(-c2c(C)nc3sc(C(C)(C)O)cn23)cc1S(=O)(=O)Nc1ccc(F)cc1` [Example 21-19], for which the inhibition at 0.1 µM was 50 to 80%.

For `COc1ccc(-c2c(C)nc3sc(C(C)(C)O)nn23)cc1S(=O)(=O)C1CN(C(=O)OC(C)(C)C)C1` [Example 2-51], the inhibition at 0.1 µM is above 80%.

With `COc1ccc(-c2c(C)nc3sc(C(C)(C)O)cn23)cc1S(=O)(=O)N[C@H]1CC[C@@H](OC)CC1` [Example 2-2], the inhibition at 0.1 µM is at most 50%.

As to `Cc1nc2sc(C(C)(C)O)nn2c1-c1ccc(Cl)c(S(=O)(=O)N[C@H]2CC[C@@H](O)CC2)c1` [Example 1-7], the inhibition at 0.1 µM is above 80%.

In the case of `COC(=O)C(C)(C)S(=O)(=O)c1cc(-c2c(C)nc3sc(C(C)(C)O)nn23)ccc1OC` [Example 1-41], the inhibition at 0.1 µM lay in the range of 50 to 80%.

As for `COc1ccc(-c2c(C)nc3sc(C(O)(C4CC4)C4CC4)nn23)cc1S(=O)(=O)[C@H]1C[C@@H](O)C1` [Example 2-96], the inhibition at 0.1 µM is above 80%.

For the molecule `[2H]C([2H])([2H])C(O)(CS(=O)(=O)c1cc(-c2c(C)nc3sc(C(C)(C)O)nn23)ccc1OC)C([2H])([2H])[2H]` [Example 2-53], the inhibition at 0.1 µM is 50 to 80%.

In the case of `COc1ccc(-c2c(C)nc3sc(C(O)(C4CC4)C4CC4)nn23)cc1S(=O)(=O)C(C)(C)CO` [Example 4-5], the inhibition at 0.1 µM is above 80%.

`Cc1nc2sc(C(C)(C)O)cn2c1-c1ccc(Cl)c(S(=O)(=O)N[C@H]2CC[C@@H](O)CC2)c1` [Example 1-2]: the inhibition at 0.1 µM was at most 50%.

As to `COc1ccc(-c2c(C)nc3sc(C(C)(C)C#N)nn23)cc1S(=O)(=O)N[C@H]1CC[C@@H](O)CC1` [Example 1-20], the inhibition at 0.1 µM is above 80%.

As for `Cc1nc2sc(C(C)(C)O)nn2c1-c1ccc(O)c(S(=O)(=O)CC(C)(C)O)c1` [Example 16], the inhibition at 0.1 µM was at most 50%.

With `COc1ccc(-c2c(C)nc3sc(C(OC)(C(F)(F)F)C(F)(F)F)cn23)cc1S(=O)(=O)N[C@H]1CC[C@@H](O)CC1` [Example 1-12], the inhibition at 0.1 µM was above 80%.
